# Measured values from paper PMC3685175 (Journal of medicinal chemistry, 2013).
# What was measured:
# Format in all cases: biochemical
# [1] = molecular target: T1, P450 1A1 (Homo sapiens, UniProt P04798)
# T1 sequence (P04798 1-512): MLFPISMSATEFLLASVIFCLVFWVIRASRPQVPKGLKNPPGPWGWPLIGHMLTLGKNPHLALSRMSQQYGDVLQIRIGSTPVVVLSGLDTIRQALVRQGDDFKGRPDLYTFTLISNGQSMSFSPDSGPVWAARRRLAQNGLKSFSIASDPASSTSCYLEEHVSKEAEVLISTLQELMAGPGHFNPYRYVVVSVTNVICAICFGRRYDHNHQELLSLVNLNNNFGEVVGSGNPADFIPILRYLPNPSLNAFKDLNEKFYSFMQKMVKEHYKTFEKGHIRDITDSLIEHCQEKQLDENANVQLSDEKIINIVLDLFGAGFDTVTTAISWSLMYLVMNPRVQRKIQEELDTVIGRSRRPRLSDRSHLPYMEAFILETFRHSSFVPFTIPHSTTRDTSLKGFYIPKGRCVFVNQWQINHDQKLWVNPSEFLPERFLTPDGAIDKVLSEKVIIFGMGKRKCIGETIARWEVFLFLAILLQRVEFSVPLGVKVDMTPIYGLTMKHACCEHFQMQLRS
# [2] = molecular target: T2, P450 1A2 (Homo sapiens, UniProt P05177)
# T2 sequence (P05177 1-516): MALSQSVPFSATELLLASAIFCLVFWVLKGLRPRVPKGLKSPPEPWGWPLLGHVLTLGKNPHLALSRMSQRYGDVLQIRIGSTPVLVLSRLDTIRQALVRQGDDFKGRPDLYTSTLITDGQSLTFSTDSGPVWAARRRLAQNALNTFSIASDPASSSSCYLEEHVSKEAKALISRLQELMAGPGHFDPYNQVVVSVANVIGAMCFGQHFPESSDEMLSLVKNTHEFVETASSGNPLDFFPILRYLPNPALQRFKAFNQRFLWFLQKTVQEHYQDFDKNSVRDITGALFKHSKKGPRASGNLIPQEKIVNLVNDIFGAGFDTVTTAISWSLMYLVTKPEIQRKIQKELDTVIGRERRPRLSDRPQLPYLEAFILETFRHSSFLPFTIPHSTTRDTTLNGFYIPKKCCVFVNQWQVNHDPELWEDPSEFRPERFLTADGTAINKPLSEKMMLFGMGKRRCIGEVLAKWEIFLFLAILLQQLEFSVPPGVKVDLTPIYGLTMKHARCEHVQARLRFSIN
# [3] = molecular target: T3, P450 1B1 (Homo sapiens, UniProt Q16678); conditions: from IC50 values
# T3 sequence (Q16678 1-543): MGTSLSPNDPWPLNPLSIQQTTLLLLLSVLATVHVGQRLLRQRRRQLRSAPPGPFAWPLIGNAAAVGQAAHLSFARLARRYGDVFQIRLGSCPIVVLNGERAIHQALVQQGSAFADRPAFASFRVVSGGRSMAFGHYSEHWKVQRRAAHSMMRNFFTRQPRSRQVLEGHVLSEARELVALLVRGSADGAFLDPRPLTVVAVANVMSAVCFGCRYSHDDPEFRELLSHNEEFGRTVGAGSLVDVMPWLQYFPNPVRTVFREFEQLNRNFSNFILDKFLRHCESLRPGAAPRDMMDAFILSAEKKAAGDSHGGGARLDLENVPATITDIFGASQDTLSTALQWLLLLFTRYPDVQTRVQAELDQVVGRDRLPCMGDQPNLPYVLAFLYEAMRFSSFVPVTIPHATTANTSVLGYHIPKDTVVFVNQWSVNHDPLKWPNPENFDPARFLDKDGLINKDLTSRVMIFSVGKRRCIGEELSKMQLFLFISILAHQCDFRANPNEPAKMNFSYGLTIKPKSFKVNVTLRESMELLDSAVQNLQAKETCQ
# [4] = Kitz-Wilson plot, mechanism-based inactivation
SMILES,"effect on P450 1A1 ([1]; 0.1 μM inhibitor, in words)","effect on P450 1A2 ([2]; 0.1 μM inhibitor, in words)",inhibition of P450 1A2 ([2]; in words (conclusion)),selectivity for P450 1B1 over P450 1A1 [3] [times],selectivity for P450 1B1 over P450 1A2 [3],"KI, P450 1A1 [1, 4] [µM]",mechanism of inhibition of P450 1A1 ([1]; in words),"KI, P450 1A2 [2, 4] [µM]",mechanism of inhibition of P450 1A2 ([2]; in words)
"C#CCOc1ccc(-c2cc(=O)c3c(O)cccc3o2)cc1 [5H4′FPE, 5-Hydroxy-2-(4-(propargyloxy)phenyl)-4H-chromen-4-one]",without having any significant effect,without having any significant effect,no inhibition,120,more than 250 times,,,,
"C#CCOc1cccc(-c2cc(=O)c3c(O)cccc3o2)c1 [5H3′FPE, 5-Hydroxy-2-(3-(propargyloxy)phenyl)-4H-chromen-4-one]",,,,,,0.13,mechanism-based inhibitor,0.071,mechanism-based inhibitor
